Consider 105 compounds from PubChem BioAssay AID1996.

Converted amounts (≈) assume the structure as drawn. Some results are limits rather than exact numbers.

What is called kinetic solubility is solubility judged after dilution from a stock solution rather than from solid.

For the data set the following is noted: buffer; pH 7.4; 200.0 µM.
Turning to `CCc1c(C)nc(SC/C=C/c2ccccc2)[nH]c1=O`, the kinetic solubility worked out at 1.4 µg/mL (≈ 4.89 µM).
The result for `CC(C)(C)NC(=O)C1CCN(C(=O)c2ccco2)CC1` reads 41.2 µg/mL (≈ 148 µM).
`O=C(COC(=O)CSc1ccccc1)Nc1ccc(F)cc1F` registered a solubility (kinetic) of over 50.6 µg/mL.
Turning to `CC(=O)c1sc(NC(=O)c2cccc(C)c2)nc1C`, the kinetic solubility is 16.8 µg/mL (≈ 61.2 µM).
With `CC1Cc2ccccc2N1C(=O)Cn1cc([N+](=O)[O-])ccc1=O` (stereo not given), the kinetic solubility was over 47 µg/mL.
The result for `C/C(=N\O)c1cc(Cl)ccc1O` reads over 27.8 µg/mL; that for `CCNC(=O)c1ccc(=O)n(Cc2ccc(Cl)cc2Cl)c1`, 39 µg/mL (≈ 120 µM); that for `Cc1cc(Nc2ccc(O)cc2)n2c(nc3ccccc32)c1C#N`, 0.9 µg/mL (≈ 2.86 µM).
The result for `Cc1cccc(N2CCN(C(=O)c3ccc(NC(=O)CC4SC(N5CCCC5)=NC4=O)cc3)CC2)c1C` (stereo not given) reads 30.3 µg/mL (≈ 58.3 µM); that for `CN(C/C=C/c1ccccc1[N+](=O)[O-])Cc1ccccc1`, 19.2 µg/mL (≈ 68 µM); that for `O=c1[nH]c2ccccc2[nH]c1=O`, over 24.3 µg/mL.
The result for `COc1ccc(OC)c(NC(=S)N2c3ccccc3CC2C)c1` (stereo not given) reads 7.6 µg/mL (≈ 23.1 µM).
In turn, `Cc1cc(C(=O)COc2cc(F)ccc2[N+](=O)[O-])c(C)n1C1CC1` returned a kinetic solubility of 3.3 µg/mL (≈ 9.93 µM). This solubility kinetic lies about 2.3-fold lower than the previous one.
The result for `COc1ccccc1N1CCN(C(=O)c2cc3ccccc3[nH]2)CC1` reads 2.7 µg/mL (≈ 8.05 µM); that for `COc1ccccc1NC(=O)C(C)OC(=O)Cc1ccsc1` (stereo not given), over 47.9 µg/mL.
The result for `O=C(NC1CCCCC1)C1CCCN1C(=O)Nc1ccccc1` (stereo not given) reads over 47.3 µg/mL.
The result for `COc1ccc(O)c(/C=C2/SC(=S)N(Cc3ccccc3)C2=O)c1` reads under 0.8 µg/mL; that for `Cc1nc2ccccc2[nH]c1=O`, over 24 µg/mL.
On to `Cn1c(SCC(=O)NC2CCCC2)nnc1C(F)(F)F`, for which the solubility (kinetic) was over 46.2 µg/mL.
`COc1ccc(C(=O)OCC(=O)NC2CC2)cc1F` gave a kinetic solubility of 32.6 µg/mL (≈ 122 µM).
With `CCCc1ccc(-c2ccc(-c3noc(-c4ccncc4)n3)cc2)nc1`, the kinetic solubility was under 0.2 µg/mL.
The result for `COC(=O)c1ccc(NC(=S)NC(=O)C2CCC2)cc1` reads 4.9 µg/mL (≈ 16.8 µM); that for `Cc1cccc2c1NC(=O)C2=Nc1ccc(Cl)cc1`, 4.7 µg/mL (≈ 17.4 µM).
Regarding `COc1ccccc1CC(=O)N(Cc1ccccc1)c1ccc(C)cc1`, the kinetic solubility was 10 µg/mL (≈ 28.9 µM). Against the preceding compound, the solubility kinetic is about 2.1-fold higher.
In the case of `COc1ccc(S(=O)(=O)NC2CCCC2)cc1C(N)=O`, the kinetic solubility was over 44.8 µg/mL.
The result for `COc1cc(C(=O)N2CCN(c3ccccn3)CC2)cc(OC)c1OC` reads over 53.6 µg/mL; that for `COc1ccc(/C=C/C(=O)Nc2c(C(=O)O)[nH]c3ccccc23)cc1OC`, over 55 µg/mL; that for `O=C(Nc1cccc(Cl)c1)c1cc(-c2ccco2)on1`, 0.8 µg/mL (≈ 2.77 µM).
With `O=Cc1ccc(Oc2nc(Cl)ncc2F)cc1`, the kinetic solubility was 36.8 µg/mL (≈ 146 µM).
For `CCCC(=O)Nc1c(-c2cccc(C)c2)c(=O)c2ccccc2n1C`, the solubility (kinetic) is 13.1 µg/mL (≈ 39.2 µM).
The result for `O=Cc1cn(CC(=O)N2CCc3ccccc32)c2ccccc12` reads 0.4 µg/mL (≈ 1.31 µM); that for `COc1ccc(Cl)cc1NC(=O)CN(C)C(=O)c1cccc2cccnc12`, 48.5 µg/mL (≈ 126 µM).
The result for `CC1CCCCN1CC(O)c1c[nH]c2ccccc12` (stereo not given) reads over 38.8 µg/mL.
The result for `CCCCCC(=O)Oc1cccc(N2C(=O)C3CCCCC3C2=O)c1` (stereo not given) reads 4.3 µg/mL (≈ 12.5 µM).
As to `C=CCc1cccc(CNc2ccc(Br)cc2)c1O`, the solubility (kinetic) was found to be 1.4 µg/mL (≈ 4.4 µM).
The compound `CN1CCN(CC#CCC(O)(c2ccccc2)c2ccccc2)CC1.Cl` returned a kinetic solubility of over 55.6 µg/mL.
The result for `CC(C)n1c(NCCO)nc2ccccc21` reads over 32.9 µg/mL; that for `CCOc1ccc(N2CC(C(=O)N3CCc4ccccc43)CC2=O)cc1` (stereo not given), 4.5 µg/mL (≈ 12.8 µM).
The result for `Cc1ccc2c(c1)N(CC(=O)N1CCOCC1)C(=O)CO2` reads over 43.5 µg/mL; that for `O=C(NCC(=O)N1CCN(c2ccccc2)CC1)c1cccs1`, over 49.4 µg/mL; that for `CN(C)/C=C(\C#N)C(=O)Nc1ccc(F)c(Cl)c1`, 2 µg/mL (≈ 7.47 µM).
As to `OCCOCCN1CCN(C(=S)Nc2ccccc2)CC1`, the kinetic solubility was over 46.4 µg/mL.
`COc1cccc(C(=O)N2CCC(C(=O)NCc3ccco3)CC2)c1` registered a kinetic solubility of 50.6 µg/mL (≈ 148 µM).
In turn, `CCn1c(SCC(N)=O)nnc1-c1ccc2c(c1)OCO2` yielded a kinetic solubility of over 46 µg/mL.
`O=C(Cn1cncn1)N/N=C/c1ccccc1Cl` returned a kinetic solubility of over 39.6 µg/mL.
For the compound `COC(=O)c1ccccc1CSc1nsc(C)c1C#N`, the kinetic solubility was under 0.3 µg/mL.
The result for `Cc1cccc(OCCCN2C(=O)C(=O)c3cc(C)ccc32)c1` reads 10.7 µg/mL (≈ 34.6 µM); that for `Cc1ccsc1-c1nc(CN2CCCC2c2ccc(F)cc2)c(C)o1` (stereo not given), 14.9 µg/mL (≈ 41.8 µM); that for `O=c1[nH]cnc2c1C(c1ccccc1)c1c(nc[nH]c1=O)O2`, over 44.1 µg/mL.
In turn, `OC1CCN(Cc2ccc3ccccc3c2)CC1` came in with a solubility (kinetic) of 26.6 µg/mL (≈ 110 µM).
With `CCCS(=O)(=O)Nc1cccc(-c2nc3cccnc3s2)c1`, the kinetic solubility stood at 2.4 µg/mL (≈ 7.2 µM).
For the compound `O=[N+]([O-])c1cccc(N2Cc3ccccc3C2)c1`, the kinetic solubility is 7.9 µg/mL (≈ 32.9 µM). This solubility kinetic lies about 3.3-fold higher than the previous one.
The result for `COc1ccc(C(=O)N2CCCN(C)CC2)c(OC)c1` reads 36.5 µg/mL (≈ 131 µM).
The result for `COc1cc(/C=C/C(=O)OCC(=O)NCCCc2ccccc2)cc(OC)c1OC` reads 27.8 µg/mL (≈ 67.2 µM); that for `CCC(=O)N(Cc1cc(=O)[nH]c2ccccc12)c1ccccc1OC`, over 50.5 µg/mL.
`O=C(COc1ccc2ccc(=O)oc2c1)Nc1cccnc1` showed a solubility (kinetic) of 14.2 µg/mL (≈ 47.9 µM).
As to `Cc1ccc(C)c(OCc2cc(C(=O)N3CCOCC3)no2)c1`, the solubility (kinetic) came out at 42.1 µg/mL (≈ 133 µM). This solubility kinetic lies about 3-fold higher than the previous one.
On to `Nc1ccccc1SCc1ccccc1`, for which the solubility (kinetic) was found to be 4 µg/mL (≈ 18.6 µM).
The result for `Cc1ccc(CCCOC(=O)CN2CCCCC2)cc1` reads 23.5 µg/mL (≈ 85.3 µM).
In the case of `CCOc1ccccc1NC(=O)CNC(=O)Cc1ccccc1`, the kinetic solubility was determined as 46.8 µg/mL (≈ 150 µM).
The result for `O=C(Cn1nc(Cl)nc1Cl)c1ccc([N+](=O)[O-])cc1` reads over 45.2 µg/mL; that for `CC1(C)C(=O)Nc2ccccc2N1C(=O)COC(=O)c1ccc([N+](=O)[O-])o1`, 12.1 µg/mL (≈ 32.4 µM).
`CCc1cccc(C)c1NC(=S)NCC1CCN(c2ccc(OC)cc2)C1` (stereo not given): the kinetic solubility is 2.7 µg/mL (≈ 7.04 µM).
The result for `NC(C(=O)O)C(c1ccccc1)C(F)F` (stereo not given) reads 30 µg/mL (≈ 139 µM).
In turn, `OCc1cc(Br)ccc1OCc1nc2ccccc2s1` came in with a solubility (kinetic) of under 0.8 µg/mL.
The result for `CC(C)(C)Nc1c(-c2ccc(O)cc2)nc2ccc(Cl)cn12` reads 0.4 µg/mL (≈ 1.27 µM); that for `Cn1nccc1C(=O)OCC(=O)Nc1ccc(S(N)(=O)=O)cc1`, over 50.8 µg/mL; that for `O=c1[nH]c2cc3ccccc3cc2nc1C(F)(F)F`, 2.9 µg/mL (≈ 11 µM).
In turn, `CC(=O)c1c(C)n(-c2ccc(C)cc2)c2ccc(O)cc12` gave a kinetic solubility of under 0.6 µg/mL.
`CCCCOc1ccc(C(=O)NCC(=O)OCC(=O)c2c(N)n(C)c(=O)n(C)c2=O)cc1` returned a solubility (kinetic) of 10.9 µg/mL (≈ 24.4 µM).
The result for `Cc1nc(NC(=O)c2c(-c3ccccc3)noc2C)sc1C(=O)N(C)C` reads over 55.6 µg/mL; that for `O=C(/C=C/c1cccc([N+](=O)[O-])c1)Nc1ccccn1`, 0.7 µg/mL (≈ 2.6 µM); that for `CC(OC(=O)C1CC1C)C(=O)Nc1ccc(Cl)cn1` (stereo not given), 40.9 µg/mL (≈ 145 µM).
In turn, `Cc1cccc(Nc2ccccc2C(=O)O)c1C` registered a kinetic solubility of over 36.2 µg/mL.
The result for `CC(C)CC(=O)NC(=S)Nc1ccc(CN2CCOCC2)cc1` reads over 50.3 µg/mL; that for `Cc1nn(C)c(C)c1CNC(=O)Nc1ccc2c(c1)OCO2`, over 45.3 µg/mL.
The result for `COCCCNC(=O)c1cc2cc(Br)ccc2oc1=O` reads 4.4 µg/mL (≈ 12.9 µM); that for `Cc1ccc(N2CC(C)Cn3c2nc2c3c(=O)[nH]c(=O)n2C)cc1` (stereo not given), 8.8 µg/mL (≈ 27 µM).
`CC1=C(C(=O)OCC2CCCCC2)C(c2cccc(O)c2)NC(=O)N1` (stereo not given) gave a kinetic solubility of 37.3 µg/mL (≈ 108 µM).
The result for `O=C(Cn1c(=O)cnc2ccccc21)Nc1cc(Cl)ccc1N1CCOCC1` reads 51.6 µg/mL (≈ 129 µM).
The result for `Cc1c(C(=O)C(=O)NCCCn2ccnc2)c2ccccc2n1C` reads over 48.7 µg/mL; that for `CCOC(=O)C1CCN(S(=O)(=O)c2ccc(Cl)nc2)CC1`, 47.3 µg/mL (≈ 142 µM); that for `CCOC(=O)c1oc2ccccc2c1NC(=O)c1ccco1`, 1.5 µg/mL (≈ 5.01 µM).
The result for `CSc1nc2c(C)c(C)c(C)c(C)c2[nH]1` reads 3.2 µg/mL (≈ 14.5 µM).
Compound `Cc1ccccc1OCCCn1c(CO)nc2ccccc21` came in with a solubility (kinetic) of 12.9 µg/mL (≈ 43.5 µM).
The result for `Cc1cc(Br)ccc1NC(=O)c1ccco1` reads over 42 µg/mL.
The result for `O=C1N=c2ccccc2=C1c1sc(=O)[nH]c1O` reads over 36.9 µg/mL; that for `C=CCN1C(=O)/C(=C2/Sc3ccccc3N2CC)SC1=S`, under 0.4 µg/mL.
The result for `CCOC(=O)C1(CC2CC2)CCN(S(=O)(=O)/C=C/c2ccccc2)CC1` reads 3.6 µg/mL (≈ 9.54 µM).
Compound `CCOc1ccc(NC(=O)CN(C)C(=O)c2ccncc2)cc1OCC` registered a kinetic solubility of over 53.6 µg/mL.
The compound `CCOc1ccc(C(=O)Oc2ccc(NC(C)=O)cc2)cc1` registered a solubility (kinetic) of under 0.6 µg/mL.
In the case of `O=C(COC(=O)c1cncc(Br)c1)NC1CCCC1`, the solubility (kinetic) was over 49.1 µg/mL.
The compound `NCC(c1ccccc1)c1c[nH]c2ccccc12` (stereo not given) yielded a solubility (kinetic) of 22.1 µg/mL (≈ 93.5 µM).
As to `Cl.O=C(NCCCn1ccnc1)c1ccc(F)cc1`, the solubility (kinetic) was over 42.6 µg/mL.
The result for `NC(=O)c1cc(S(=O)(=O)N2CCc3ccccc3C2)cs1` reads 2 µg/mL (≈ 6.2 µM).
The result for `O=C(NCc1ccc(F)cc1)c1cccnc1` reads over 34.5 µg/mL; that for `COC(=O)c1cccc(NC(=S)Nc2ccccc2Cl)c1`, 41.4 µg/mL (≈ 129 µM).
Compound `O=C(/C=C/c1cccc(F)c1)OCC(=O)N1CCc2ccccc21` registered a kinetic solubility of 3.2 µg/mL (≈ 9.84 µM).
Turning to `O=C(CSC(=S)N1CCCC1)c1ccccc1`, the kinetic solubility was under 0.6 µg/mL.
The result for `Cc1ccccc1NC(=O)c1cccnc1` reads 20.7 µg/mL (≈ 97.5 µM); that for `O=C(NCCNC(=O)c1ccccn1)c1ccc(F)cc1`, over 43.1 µg/mL; that for `O=C(NC1CCCCCCC1)c1cccc(Cl)c1`, 0.9 µg/mL (≈ 3.39 µM).
In turn, `CCC1CCCCN1C(=O)COC(=O)c1cc(=O)[nH]c2ccccc12` (stereo not given) displayed a solubility (kinetic) of over 51.4 µg/mL.
The result for `C[n+]1c(-c2ccccc2)sc2ccccc21.[O-][Cl+3]([O-])([O-])[O-]` reads over 48.9 µg/mL; that for `O=C(NCC(O)c1ccccc1)c1ccccc1` (stereo not given), over 36.2 µg/mL.
